Legend:
[1] = statement of the introduction; cited from earlier work
[2] = Solubility of the peptides in water and TFE/water; format: physicochemical
[3] = Far UV circular dichroism, TFE polarity titration; format: physicochemical; details: aqueous solution, 10% TFE, 100 µg/ml
[4] = system: cells; details: free peptide without transporter; stated, no experiment described; cited from earlier work

Molecule	water solubility [1]	water solubility (in words) [2]	aggregation (inferred from poor water solubility and β-structure in CD) [3]	direct cell permeation / transfer across biomembranes [4]
Cc1ccc(NC(=O)NCCSCc2ccc(CN(C)C)o2)cc1Cl [CAP-1]	limited water solubility	–	–	–
C=C(C)[C@@H]1CC[C@]2(C(=O)O)CC[C@]3(C)[C@H](CC[C@@H]4[C@@]5(C)CC[C@H](OC(=O)CC(C)(C)C(=O)O)C(C)(C)[C@@H]5CC[C@]43C)[C@@H]12 [PA-457]	limited water solubility	–	–	–
ITFEDLLDYYGP [CAI(Pep1)]	limited water solubility	–	–	–
ITFEDLLDYYGPKC [CAI-peptide]	–	water insoluble	oligomeric aggregates are formed	cannot permeate cells directly

Reference: publication PMC2500149 (International Journal of Medical Sciences, 2008)
